biological target: T1, Gal4DBD/AaEcR (DEF) (Aedes aegypti, UniProt P49880); experiment: cell-based; type: cell-based; conditions: 33 μM; 3T3 cells; 48 h; average of two wells
T1 construct: The wildtype D, E, and F domains from mosquito Aedes aegypti EcR; expressed in transfected cells; host or cells: 3T3 cells
Procedure: 3T3 cells were trypsinized and plated at 2.5×10^3 cells/well on a 96-well plate. After incubation for 24 h at 37° C. under 5% CO2, cells were transfected with the Gal4DBD/AaEcR (DEF) gene expression cassette and the reporter plasmid, pFRLuc, containing a 5× GAL4 response element and the firefly luciferase gene in serum free media using Superfect (Qiagen). After transfection for 4 h at 37° C., the cells were treated with ligand in serum media. […] Single dose testing was performed at 33 μM.

T1 sequence (P28704 286-520 A311G/G315S/G445S/I449V): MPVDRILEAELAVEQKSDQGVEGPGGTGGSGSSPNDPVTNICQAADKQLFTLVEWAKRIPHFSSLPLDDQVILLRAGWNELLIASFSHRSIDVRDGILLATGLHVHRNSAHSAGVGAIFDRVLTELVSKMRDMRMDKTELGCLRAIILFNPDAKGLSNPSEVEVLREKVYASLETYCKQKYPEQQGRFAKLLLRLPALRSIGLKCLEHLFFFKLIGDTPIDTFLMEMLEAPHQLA
T1 sequence (P49880 405-776): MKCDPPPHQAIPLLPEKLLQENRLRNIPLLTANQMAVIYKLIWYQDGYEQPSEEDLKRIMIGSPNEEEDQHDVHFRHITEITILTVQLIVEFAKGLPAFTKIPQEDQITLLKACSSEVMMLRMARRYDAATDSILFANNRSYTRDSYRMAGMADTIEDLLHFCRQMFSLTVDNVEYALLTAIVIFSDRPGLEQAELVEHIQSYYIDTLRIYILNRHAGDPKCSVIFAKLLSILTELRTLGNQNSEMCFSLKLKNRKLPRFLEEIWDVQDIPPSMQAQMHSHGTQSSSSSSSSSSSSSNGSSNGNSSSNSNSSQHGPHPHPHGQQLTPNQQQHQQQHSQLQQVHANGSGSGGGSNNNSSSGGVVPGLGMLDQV

SMILES | Fold Induction Average, AA_3T3V1 Assay 33 μM [fold]
Cc1ccc(C(=O)N2c3ccccc3C(Nc3cccc(C)c3)CC2C)cc1 (mixture of isomers) [Compound I-44] | 26
COc1cccc(NC2CC(C)N(C(=O)c3ccc(C)cc3)c3ccccc32)c1 (mixture of isomers) [Compound I-46] | 8
Cc1ccc(C(=O)N2c3cc(Cl)ccc3C(Nc3ccc(F)cc3)CC2C)cc1F (mixture of isomers) [Compound I-48] | 19
CCCCCCCC(=O)N1c2ccccc2[C@@H](Nc2ccccc2)C[C@@H]1C (relative stereo) [Compound I-2] | 49
CCCCC(=O)N1c2ccccc2[C@@H](Nc2ccccc2)C[C@@H]1C (relative stereo) [Compound I-3] | 252
C[C@H]1C[C@@H](Nc2ccccc2)c2ccccc2N1C(=O)c1ccc(F)c(F)c1 (relative stereo) [Compound I-18] | 83
C[C@H]1C[C@@H](Nc2ccccc2)c2ccccc2N1C(=O)c1ccc(C(F)(F)F)c(F)c1 (relative stereo) [Compound I-20] | 47
C[C@H]1C[C@@H](Nc2ccccc2)c2ccccc2N1C(=O)c1ccc(Cl)cc1 (relative stereo) [Compound I-29] | 61
COC(=O)c1ccc(C(=O)N2c3ccccc3[C@H](Nc3ccccc3)C[C@@H]2C)cc1 (relative stereo) [Compound I-30] | 9
CCCCCCCCC(=O)N1c2ccccc2[C@@H](Nc2ccccc2)C[C@@H]1C (relative stereo) [Compound I-127] | 22
Cc1ccc(N[C@H]2C[C@H](C)N(C(=O)Nc3cccc(Cl)c3)c3ccc(C)cc32)cc1 (relative stereo) [Compound I-218] | 6
Cc1ccc(NC(=O)N2c3ccc(C)cc3[C@@H](Nc3ccc(C)cc3)C[C@@H]2C)cc1 (relative stereo) [Compound I-219] | 3
C[C@H]1C[C@H](Nc2ccc(F)cc2)c2cc(F)ccc2N1C(=O)Nc1ccccc1 (relative stereo) [Compound I-221] | 1027
C[C@H]1C[C@H](Nc2ccc(F)cc2)c2cc(F)ccc2N1C(=O)Nc1ccc(Cl)cc1 (relative stereo) [Compound I-222] | 939
C[C@H]1C[C@H](Nc2ccc(F)cc2)c2cc(F)ccc2N1C(=O)Nc1cccc(Cl)c1 (relative stereo) [Compound I-223] | 1414
Cc1ccc(NC(=O)N2c3ccc(F)cc3[C@@H](Nc3ccc(F)cc3)C[C@@H]2C)cc1 (relative stereo) [Compound I-224] | 1245
Cc1cccc(NC(=O)N2c3ccc(F)cc3[C@@H](Nc3ccc(F)cc3)C[C@@H]2C)c1 (relative stereo) [Compound I-225] | 1561
Cc1ccc(NC2CC(C)N(C(=O)c3ccc(Cl)cc3)c3ccc(C)cc32)cc1 (stereo not shown) [Compound I-32] | 1
Cc1ccc(NC2CC(C)N(C(=O)c3ccc(C(F)(F)F)c(F)c3)c3ccc(C)cc32)cc1 (stereo not shown) [Compound I-49] | 3
Cc1ccc(NC2CC(C)N(C(=O)c3ccccc3F)c3ccc(C)cc32)cc1 (stereo not shown) [Compound I-51] | 4

SMILES | Fold Induction Average, AA_3T3V1 Assay 33 μM [fold]
Cc1ccc(NC2CC(C)N(C(=O)c3ccccc3C)c3ccc(C)cc32)cc1 (stereo not shown) [Compound I-52] | 19
CCc1ccc(C(=O)N2c3ccccc3C(Nc3ccccc3)CC2C)cc1 (stereo not shown) [Compound I-59] | 4
Cc1ccc(NC2CC(C)N(C(=O)c3ccc(C)cc3)c3ccc(C)cc32)cc1 (stereo not shown) [Compound I-99] | 2
Cc1ccc(NC2CC(C)N(C(=O)c3ccccc3)c3ccc(C)cc32)cc1 (stereo not shown) [Compound I-100] | 2
CCc1c(OC)cccc1C(=O)N1c2ccc(C)cc2C(Nc2ccc(C)cc2)CC1C (stereo not shown) [Compound I-112] | 194
CC1CC(Nc2ccc(F)cc2)c2cc(F)ccc2N1C(=O)c1ccno1 (stereo not shown) [Compound I-114] | 1421
CC1CC(Nc2ccc(F)cc2)c2cc(F)ccc2N1C(=O)c1ccc(Cl)c(F)c1 (stereo not shown) [Compound I-115] | 643
CC1CC(Nc2ccc(F)cc2)c2cc(F)ccc2N1C(=O)c1ccnc(Cl)c1 (stereo not shown) [Compound I-116] | 1100
CCc1c(OC)cccc1C(=O)N1c2ccc(F)cc2C(Nc2ccc(F)cc2)CC1C (stereo not shown) [Compound I-117] | 1256
CC1CC(Nc2ccccc2)c2ccccc2N1C(=O)C=Cc1ccco1 (stereo not shown) [Compound I-121] | 81
CC1CC(Nc2ccccc2)c2ccccc2N1C(=O)c1cccs1 (stereo not shown) [Compound I-122] | 5
CC(=O)N(c1ccccc1)C1CC(C)N(C(=O)c2ccc(C(C)(C)C)cc2)c2ccccc21 (stereo not shown) [Compound I-123] | 1
CC(=O)N1c2ccccc2C(N(C(=O)c2ccc(F)cc2)c2ccccc2)CC1C (stereo not shown) [Compound I-128] | 1
CC1CC(Nc2ccccc2)c2ccccc2N1C(=O)COc1ccccc1Cl (stereo not shown) [Compound I-129] | 1
CC1CC(Nc2ccccc2)c2ccccc2N1C(=O)Cc1ccccc1 (stereo not shown) [Compound I-130] | 1
CC(=O)N1c2ccccc2C(N(C(=O)c2ccc(C)cc2)c2ccccc2)CC1C (stereo not shown) [Compound I-132] | 1
CCCCCC(=O)N(c1ccccc1)C1CC(C)N(C(=O)c2cccc(OC)c2)c2ccccc21 (stereo not shown) [Compound I-133] | 1
CC1CC(N(C(=O)c2cccc(F)c2)c2ccccc2)c2ccccc2N1C(=O)c1cccc(F)c1 (stereo not shown) [Compound I-136] | 1
CC1CC(Nc2ccccc2)c2ccccc2N1C(=O)c1ccco1 (stereo not shown) [Compound I-139] | 1
CCOC(=O)C(=O)N1c2ccccc2C(N(C(=O)C(=O)OCC)c2ccccc2)CC1C (stereo not shown) [Compound I-145] | 47

SMILES | Fold Induction Average, AA_3T3V1 Assay 33 μM [fold]
COc1ccc(C=CC(=O)N2c3ccccc3C(N(C(C)=O)c3ccccc3)CC2C)cc1 (stereo not shown) [Compound I-150] | 1
COc1ccc(C(=O)N2c3ccccc3C(N(C(=O)c3ccc(OC)cc3)c3ccccc3)CC2C)cc1 (stereo not shown) [Compound I-153] | 1
CCCc1ccc(C(=O)N2c3c(C)cccc3C(Nc3ccccc3C)CC2C)cc1 (stereo not shown) [Compound I-157] | 1
Cc1cccc(C(=O)N2c3ccccc3C(N(C(=O)c3cccc(C)c3)c3ccccc3)CC2C)c1 (stereo not shown) [Compound I-164] | 1
CC1CC(Nc2ccccc2)c2ccccc2N1C(=O)CN1C(=O)CCC1=O (stereo not shown) [Compound I-167] | 1
Cc1ccc(NC2CC(C)N(C(=O)c3cccc(F)c3)c3ccc(C)cc32)cc1 (stereo not shown) [Compound I-174] | 1
CC1CC(Nc2ccccc2)c2ccccc2N1C(=O)Nc1ccccc1 (stereo not shown) [Compound I-176] | 268
COc1ccc(C=CC(=O)N2c3ccccc3C(Nc3ccccc3)CC2C)cc1 (stereo not shown) [Compound I-177] | 126
CC1CC(N(C(=O)C(F)(F)F)c2ccccc2)c2ccccc2N1C(=O)C(F)(F)F (stereo not shown) [Compound I-182] | 1
CCCCCC(=O)N1c2ccccc2C(N(C(=O)c2ccccc2F)c2ccccc2)CC1C (stereo not shown) [Compound I-186] | 1
Cc1ccc(C(=O)N2c3c(C)cccc3C(Nc3ccccc3C)CC2C)cc1 (stereo not shown) [Compound I-187] | 1
CC(=O)N(c1ccc(F)cc1)C1CC(C)N(C(=O)c2ccc(C)c(F)c2)c2ccc(F)cc21 (stereo not shown) [Compound I-195] | 1
Cc1cccc(C(=O)N2c3ccccc3C(Nc3ccccc3)CC2C)c1 (stereo not shown) [Compound I-198] | 135
CC1CC(Nc2ccccc2)c2ccccc2N1C(=O)c1cccc(F)c1 (stereo not shown) [Compound I-199] | 147
COc1cccc(C(=O)N2c3ccccc3C(Nc3ccccc3)CC2C)c1 (stereo not shown) [Compound I-200] | 212
CC1CC(Nc2ccccc2)c2ccccc2N1C(=O)c1cccc(C(F)(F)F)c1 (stereo not shown) [Compound I-201] | 71
Cc1ccc(NC2CC(C)N(C(=O)c3cccc(F)c3)c3ccc(C)cc32)cc1 (stereo not shown) [Compound I-203] | 3
COc1cccc(C(=O)N2c3ccc(C)cc3C(Nc3ccc(C)cc3)CC2C)c1 (stereo not shown) [Compound I-204] | 1
Cc1cccc(C(=O)N2c3ccc(F)cc3C(Nc3ccc(F)cc3)CC2C)c1 (stereo not shown) [Compound I-206] | 142
CC1CC(Nc2ccc(F)cc2)c2cc(F)ccc2N1C(=O)c1cccc(F)c1 (stereo not shown) [Compound I-207] | 108

same assay, conditions: NIH3T3, read-out: Fold Induction Average, AA_3T3V1 Assay 33 μM

SMILES | fold induction at 33 µM
Cc1ccc(NC(=O)N2c3ccccc3[C@@H](Nc3ccccc3)C[C@H]2C)cc1 (relative stereo) [Compound I-214, cis-2-methyl-1-(4-methylphenylaminocarbonyl)-4-(4-phenylamino)-1,2,3,4-tetrahydroquinoline] | 820
